Data reported in patent US20260297081A1, “COMPOUNDS AND METHODS OF TREATING CANCERS” (Cullgen Inc., priority 2023, published 2026).
pIC50: −log10 of the molar value.

How the values were obtained:
MCF7 cells = test: Anti-proliferation (viability) of MCF7 cells (Table 7, FIG. 2B); assay type: cell-based; conditions: Homo sapiens, MCF7, MCF7 cells, 3-6 days, 10-point serial dilution; read-out: GI IC50 in MCF-7
CDK4 = CDK4 (Homo sapiens, UniProt P11802+Q16531); test: HiBiT detection of HiBiT-tagged CDK4 protein level in MCF7 cells, 16 hours (Table 8); assay type: cell-based; parameters: expressed in transfected cells; host or cells: MCF7; conditions: MCF7 cells stably expressing HiBiT tagged target proteins; for activity at 0.01 µM: 10 nM, read-out: % CDK4 Relative Level (10 nM); for activity at 0.1 µM: 100 nM, read-out: % CDK4 Relative Level (100 nM)
Sequence of CDK4 (P11802 whole entry): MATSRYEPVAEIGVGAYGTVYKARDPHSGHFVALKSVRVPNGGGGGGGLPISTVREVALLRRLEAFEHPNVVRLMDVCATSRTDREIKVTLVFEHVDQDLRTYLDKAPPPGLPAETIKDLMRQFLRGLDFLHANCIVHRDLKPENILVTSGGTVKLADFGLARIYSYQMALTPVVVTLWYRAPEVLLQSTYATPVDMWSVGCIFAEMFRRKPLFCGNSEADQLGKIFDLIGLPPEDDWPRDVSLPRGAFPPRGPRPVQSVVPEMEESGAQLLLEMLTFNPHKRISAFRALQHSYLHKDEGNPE
Sequence of CDK4 (P24385 whole entry partner): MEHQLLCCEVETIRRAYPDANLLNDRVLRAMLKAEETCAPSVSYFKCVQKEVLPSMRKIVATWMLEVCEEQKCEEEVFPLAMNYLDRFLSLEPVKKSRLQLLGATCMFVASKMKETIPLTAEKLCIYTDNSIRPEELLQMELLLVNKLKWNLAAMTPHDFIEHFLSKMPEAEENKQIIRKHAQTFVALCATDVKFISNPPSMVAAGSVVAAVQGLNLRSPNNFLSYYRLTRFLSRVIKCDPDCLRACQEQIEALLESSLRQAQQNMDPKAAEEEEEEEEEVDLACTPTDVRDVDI
Sequence of CDK4 (Q16531 2-1140 limits assumed): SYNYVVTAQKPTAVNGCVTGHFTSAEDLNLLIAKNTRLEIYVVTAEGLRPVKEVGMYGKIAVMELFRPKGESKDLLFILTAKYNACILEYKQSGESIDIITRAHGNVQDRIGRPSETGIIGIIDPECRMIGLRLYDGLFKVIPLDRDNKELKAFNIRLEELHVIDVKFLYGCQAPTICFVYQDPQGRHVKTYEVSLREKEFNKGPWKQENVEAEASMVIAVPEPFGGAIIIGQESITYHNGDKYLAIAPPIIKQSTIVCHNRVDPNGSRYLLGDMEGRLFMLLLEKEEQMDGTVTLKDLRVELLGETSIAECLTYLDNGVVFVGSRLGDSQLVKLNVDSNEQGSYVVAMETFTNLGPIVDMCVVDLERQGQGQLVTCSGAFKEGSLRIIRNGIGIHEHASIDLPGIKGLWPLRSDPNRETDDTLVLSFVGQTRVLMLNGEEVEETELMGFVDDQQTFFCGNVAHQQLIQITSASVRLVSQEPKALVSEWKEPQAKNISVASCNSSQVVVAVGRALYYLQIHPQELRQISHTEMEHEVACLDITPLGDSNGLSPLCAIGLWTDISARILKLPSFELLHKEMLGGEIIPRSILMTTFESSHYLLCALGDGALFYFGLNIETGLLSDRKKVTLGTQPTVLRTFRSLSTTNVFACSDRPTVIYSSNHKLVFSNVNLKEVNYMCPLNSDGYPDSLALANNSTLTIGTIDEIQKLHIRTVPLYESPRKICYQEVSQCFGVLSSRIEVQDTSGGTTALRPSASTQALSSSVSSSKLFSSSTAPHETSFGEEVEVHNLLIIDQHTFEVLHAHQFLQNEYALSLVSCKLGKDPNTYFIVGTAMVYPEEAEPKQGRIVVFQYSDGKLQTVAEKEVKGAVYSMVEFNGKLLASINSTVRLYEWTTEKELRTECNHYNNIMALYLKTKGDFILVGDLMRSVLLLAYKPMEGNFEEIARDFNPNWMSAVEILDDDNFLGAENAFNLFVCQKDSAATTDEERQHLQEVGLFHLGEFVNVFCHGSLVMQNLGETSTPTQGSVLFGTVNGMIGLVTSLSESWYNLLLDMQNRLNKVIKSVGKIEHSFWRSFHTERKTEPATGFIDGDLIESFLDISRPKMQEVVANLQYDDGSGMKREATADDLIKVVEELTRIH
Method: HiBiT detection system quantitatively measures total amounts of HiBiT-tagged proteins using a luminescent based method. MCF7 cells stably expressing HiBiT tagged target proteins were treated with heterobifunctional compounds at indicated concentrations for 16 hours, then lysed with Nano-Glo HiBiT Lytic detection reagents.

| SMILES | pIC50 (MCF7 cells) | activity at 0.01 µM (CDK4) [%] | activity at 0.1 µM (CDK4) [%] |
| --- | --- | --- | --- |
| CNc1ccc(C(=O)Nc2ccc(N(C)C)nn2)c(NCCC(=O)N2CCN(Cc3ccc(Nc4ncc(F)c(-c5cc(F)c6nc(C)n(C(C)C)c6c5)n4)nc3)CC2)n1 [CPD-600, N-(6-(dimethylamino)pyridazin-3-yl)-2-((3-(4-((6-((5-fluoro-4-(4-fluoro-1-isopropyl-2-methyl-1H-benzo[d]imidazol-6-yl)pyrimidin-2-yl)amino)pyridin-3-yl)methyl)piperazin-1-yl)-3-oxopropyl)amino)-6-(methylamino)nicotinamide] | < 7.00 | 55 to 85 | 55 to 85 |
| [2H]C([2H])([2H])Nc1ccc(C(=O)Nc2cc(C)n(C)n2)c(NC2CC3(C2)CN(C(=O)CN2CCC4(CCN(c5ccc(Nc6ncc7c(C)c(C(C)=O)c(=O)n(C8CCCC8)c7n6)nc5)C4)C2)C3)n1 (stereo not shown) [CPD-447, 2-((2-(2-(7-(6-((6-acetyl-8-cyclopentyl-5-methyl-7-oxo-7,8-dihydropyrido[2,3-d]pyrimidin-2-yl)amino)pyridin-3-yl)-2,7-diazaspiro[4.4]nonan-2-yl)acetyl)-2-azaspiro[3.3]heptan-6-yl)amino)-N-(1,5-dimethyl-1H-pyrazol-3-yl)-6-((methyl-d3)amino)nicotinamide] | > 7.30 | 55 to 85 | 55 to 85 |
| CNc1ccc(C(=O)Nc2ccc(N(C)C)nn2)c(NCCCCC(=O)N2CCN(Cc3ccc(Nc4ncc(F)c(-c5cc(F)c6nc(C)n(C(C)C)c6c5)n4)nc3)CC2)n1 [CPD-602, N-(6-(dimethylamino)pyridazin-3-yl)-2-((5-(4-((6-((5-fluoro-4-(4-fluoro-1-isopropyl-2-methyl-1H-benzo[d]imidazol-6-yl)pyrimidin-2-yl)amino)pyridin-3-yl)methyl)piperazin-1-yl)-5-oxopentyl)amino)-6-(methylamino)nicotinamide] | < 7.00 | 55 to 85 | 55 to 85 |
| CCc1ccc(C(=O)Nc2ccc(N(C)C)nn2)c(N[C@H]2CC[C@H](C(=O)N3CCC(N4CCN(C5CCC(Nc6ncc7c(C)c(C(C)=O)c(=O)n(C8CCCC8)c7n6)CC5)CC4)C3)CC2)n1 (stereo partly drawn) [CPD-597, 2-((trans-4-(3-(4-(4-((6-acetyl-8-cyclopentyl-5-methyl-7-oxo-7,8-dihydropyrido[2,3-d]pyrimidin-2-yl)amino)cyclohexyl)piperazin-1-yl)pyrrolidine-1-carbonyl)cyclohexyl)amino)-N-(6-(dimethylamino)pyridazin-3-yl)-6-ethylnicotinamide] | > 7.30 | > 85 | 55 to 85 |
| CCc1ccc(C(=O)Nc2ccc(N(C)C)nn2)c(NC2CCC3(CCN(C(=O)CN4CCN(Cc5ccc(Nc6ncc7c(C)c(C(C)=O)c(=O)n(C8CCCC8)c7n6)nc5)CC4)C3)C2)n1 (stereo not shown) [CPD-582, 2-((2-(2-(4-((6-((6-acetyl-8-cyclopentyl-5-methyl-7-oxo-7,8-dihydropyrido[2,3-d]pyrimidin-2-yl)amino)pyridin-3-yl)methyl)piperazin-1-yl)acetyl)-2-azaspiro[4.4]nonan-7-yl)amino)-N-(6-(dimethylamino)pyridazin-3-yl)-6-ethylnicotinamide] | > 7.30 | 55 to 85 | 55 to 85 |
| CC(=O)c1c(C)c2cnc(Nc3ccc(N4CCN(C5CCN(C(=O)C6(O)CCC(Nc7nc(NC(C)C)ccc7C(=O)Nc7ccc(N(C)C)nn7)CC6)C5)CC4)cn3)nc2n(C2CCCC2)c1=O (stereo not drawn) [CPD-574, 2-((cis-4-(3-(4-(6-((6-acetyl-8-cyclopentyl-5-methyl-7-oxo-7,8-dihydropyrido[2,3-d]pyrimidin-2-yl)amino)pyridin-3-yl)piperazin-1-yl)pyrrolidine-1-carbonyl)-4-hydroxycyclohexyl)amino)-N-(6-(dimethylamino)pyridazin-3-yl)-6-(isopropylamino)nicotinamide] | > 7.30 | > 85 | 55 to 85 |
| CNc1ccc(C(=O)Nc2ccc(N(C)C)nn2)c(NCCOCCC(=O)N2CCN(c3ccc(Nc4ncc(F)c(-c5cc(F)c6nc(C)n(C(C)C)c6c5)n4)nc3)CC2)n1 [CPD-654, N-(6-(dimethylamino)pyridazin-3-yl)-2-((2-(3-(4-(6-((5-fluoro-4-(4-fluoro-1-isopropyl-2-methyl-1H-benzo[d]imidazol-6-yl)pyrimidin-2-yl)amino)pyridin-3-yl)piperazin-1-yl)-3-oxopropoxy)ethyl)amino)-6-(methylamino)nicotinamide] |  | > 85 | > 85 |
| CNc1ccc(C(=O)Nc2ccc(N(C)C)nn2)c(NCCCCC(=O)NC2CCC3(CC2)CC(Nc2ncc4ccc(=O)n(C5CCCC5)c4n2)C3)n1 (stereo not shown) [CPD-675, 2-((5-((2-((8-cyclopentyl-7-oxo-7,8-dihydropyrido[2,3-d]pyrimidin-2-yl)amino)spiro[3.5]nonan-7-yl)amino)-5-oxopentyl)amino)-N-(6-(dimethylamino)pyridazin-3-yl)-6-(methylamino)nicotinamide] |  | > 85 | > 85 |
| CNc1ccc(C(=O)Nc2ccc(N(C)C)nn2)c(NCCC(=O)N2CCN(c3ccc(Nc4ncc(F)c(-c5cc(F)c6nc(C)n(C(C)C)c6c5)n4)nc3)CC2)n1 [CPD-648, N-(6-(dimethylamino)pyridazin-3-yl)-2-((3-(4-(6-((5-fluoro-4-(4-fluoro-1-isopropyl-2-methyl-1H-benzo[d]imidazol-6-yl)pyrimidin-2-yl)amino)pyridin-3-yl)piperazin-1-yl)-3-oxopropyl)amino)-6-(methylamino)nicotinamide] |  | > 85 | > 85 |

Second part, the compound after the results:

| pIC50 (MCF7 cells) | activity at 0.01 µM (CDK4) [%] | activity at 0.1 µM (CDK4) [%] | SMILES |
| --- | --- | --- | --- |
| < 7.00 | 55 to 85 | 55 to 85 | CNc1ccc(C(=O)Nc2ccc(N(C)C)nn2)c(NCCOCCC(=O)N2CCN(c3ccc(Nc4ncc5cc(C(=O)N(C)C)n(C6CCCC6)c5n4)nc3)CC2)n1 [CPD-622, 7-cyclopentyl-2-((5-(4-(3-(2-((3-((6-(dimethylamino)pyridazin-3-yl)carbamoyl)-6-(methylamino)pyridin-2-yl)amino)ethoxy)propanoyl)piperazin-1-yl)pyridin-2-yl)amino)-N,N-dimethyl-7H-pyrrolo[2,3-d]pyrimidine-6-carboxamide] |
| < 7.00 | 55 to 85 | 55 to 85 | CNc1ccc(C(=O)Nc2ccc(N(C)C)nn2)c(NCCCCNC(=O)CN2CCN(c3ccc(Nc4ncc5cc6n(c5n4)C4(CCCCC4)CNC6=O)nc3)CC2)n1 [CPD-642, N-(6-(dimethylamino)pyridazin-3-yl)-6-(methylamino)-2-((4-(2-(4-(6-((6′-oxo-7′,8′-dihydro-6′H-spiro[cyclohexane-1,9′-pyrazino[1′,2′:1,5]pyrrolo[2,3-d]pyrimidin]-2′-yl)amino)pyridin-3-yl)piperazin-1-yl)acetamido)butyl)amino)nicotinamide] |
|  | > 85 | > 85 | CNc1ccc(C(=O)Nc2ccc(N(C)C)nn2)c(NCCCCCC(=O)N2CCN(c3ccc(Nc4ncc(F)c(-c5cc(F)c6nc(C)n(C(C)C)c6c5)n4)nc3)CC2)n1 [CPD-651, N-(6-(dimethylamino)pyridazin-3-yl)-2-((6-(4-(6-((5-fluoro-4-(4-fluoro-1-isopropyl-2-methyl-1H-benzo[d]imidazol-6-yl)pyrimidin-2-yl)amino)pyridin-3-yl)piperazin-1-yl)-6-oxohexyl)amino)-6-(methylamino)nicotinamide] |
|  | > 85 | > 85 | CNc1ccc(C(=O)Nc2ccc(N(C)C)nn2)c(NCCCNC(=O)CN2CCN(c3ccc(Nc4ncc(F)c(-c5cc(F)c6nc(C)n(C(C)C)c6c5)n4)nc3)CC2)n1 [CPD-659, N-(6-(dimethylamino)pyridazin-3-yl)-2-((3-(2-(4-(6-((5-fluoro-4-(4-fluoro-1-isopropyl-2-methyl-1H-benzo[d]imidazol-6-yl)pyrimidin-2-yl)amino)pyridin-3-yl)piperazin-1-yl)acetamido)propyl)amino)-6-(methylamino)nicotinamide] |
|  | > 85 | > 85 | CNc1ccc(C(=O)Nc2ccc(N(C)C)nn2)c(NCCCCCCCNC(=O)CN2CCN(Cc3ccc(Nc4ncc(F)c(-c5cc(F)c6nc(C)n(C(C)C)c6c5)n4)nc3)CC2)n1 [CPD-613, N-(6-(dimethylamino)pyridazin-3-yl)-2-((7-(2-(4-((6-((5-fluoro-4-(4-fluoro-1-isopropyl-2-methyl-1H-benzo[d]imidazol-6-yl)pyrimidin-2-yl)amino)pyridin-3-yl)methyl)piperazin-1-yl)acetamido)heptyl)amino)-6-(methylamino)nicotinamide] |
|  | > 85 | > 85 | CNc1ccc(C(=O)Nc2ccc(N(C)C)nn2)c(NCCNC(=O)CN2CCN(c3ccc(Nc4ncc(F)c(-c5cc(F)c6nc(C)n(C(C)C)c6c5)n4)nc3)CC2)n1 [CPD-658, N-(6-(dimethylamino)pyridazin-3-yl)-2-((2-(2-(4-(6-((5-fluoro-4-(4-fluoro-1-isopropyl-2-methyl-1H-benzo[d]imidazol-6-yl)pyrimidin-2-yl)amino)pyridin-3-yl)piperazin-1-yl)acetamido)ethyl)amino)-6-(methylamino)nicotinamide] |
|  | > 85 | > 85 | CNc1ccc(C(=O)Nc2ccc(N(C)C)nn2)c(NCCC(=O)N2CCN(c3ccc(Nc4ncc5cc6n(c5n4)C4(CCCCC4)CNC6=O)nc3)CC2)n1 [CPD-632, N-(6-(dimethylamino)pyridazin-3-yl)-6-(methylamino)-2-((3-oxo-3-(4-(6-((6′-oxo-7′,8′-dihydro-6′H-spiro[cyclohexane-1,9′-pyrazino[1′,2′:1,5]pyrrolo[2,3-d]pyrimidin]-2′-yl)amino)pyridin-3-yl)piperazin-1-yl)propyl)amino)nicotinamide] |
